Columns and labels:
[1] = system: NF-κB transcriptional activity; assay: NF-κB luciferase reporter assay; assay type: cell-based, human; conditions: erlotinib 24 h, 100 nM GBM9, 1 uM U87EGFRwt; LPS 1 μg/ml
Experimental: Cells were plated in 48 well dishes to 70%-80% confluence followed by with […] or 3xAP1pGL3 reporter plasmid using lipofectamine 2000. A dual-luciferase reporter assay system was used according to manufacturer's instructions (Promega, Madison WI). Firefly luciferase activity was measured in a luminometer and normalized on the basis of Renilla luciferase activity. Experiments were done in triplicate and 3 independent experiments were done.

GAS6 = GAS6 expression (real time PCR, ELISA, Western blot); assay type: cell-based, human; conditions: erlotinib; patient derived neurospheres and established GBM cell lines
Experimental: Total RNA was isolated by TRIzol Reagent (Ambion). cDNA Reverse Transcription were performed by using High-Capacity cDNA Reverse Transcription Kit (Applied Biosystems). […] Each PCR was carried out in triplicate in a 20 μl volume using SYBR Green Master Mix (Applied Biosystems) for 15 minutes at 95° C. for initial denaturing, followed by 40 cycles of 95° C. for 15 s and 60° C. for 60 s in ViiA 7 Real-Time PCR System (Applied Biosystems). At least two independent experiments were done. Values for each gene were normalized to expression levels of GAPDH mRNA. The following primers were used: TNF, [NT] ID NO:3) and [NT] ID NO:4); […] GAPDH, [NT] ID NO:7) and [NT] ID NO:8). […] After 48 hours, supernatant and cell lysates were collected. Supernatant medium was concentrated 5-10-fold with Pierce protein concentrator (ThermoFisher). TNF protein concentration in supernatant, cell lysates and tissue extracts was determined by ELISA using a commercial TNF detection kit (ThermoFisher) according to manufacturer's instructions. Additionally, GAS6 protein concentration in supernatant was measured by ELISA kit (LifeSpan BioSciences).

[2] = system: U87EGFRwt and U87EGFRvIII cells; assay: AlamarBlue cell viability assay, established GBM cell lines; assay type: cell-based, human; conditions: established GBM cell lines expressing EGFRwt or EGFRvIII, erlotinib 10 μM
Experimental: Cell viability assay was conducted using AlamarBlue cell viability assay kit (ThermoFisher) following manufacturer's protocol. Cells were cultured in Corning 96-well black plates with clear bottom (5000 cells/well). Drugs were added to cells for 72 hour following detection using POLARstar Omega Microplate Reader (excitation at 544 nm and emission at 590 nm) (BMG LABTECH, Germany).

Met = assay: Western blot, Met activation in glioma cells; assay type: cell-based, human; conditions: erlotinib; established cell lines and patient derived neurospheres
Experimental: (§1) Western blot analysis was performed according to standard protocols.

TNF [3] = assay: TNF mRNA (qRT-PCR) and TNF ELISA in glioma cells; assay type: cell-based, human
Experimental: Total RNA was isolated by TRIzol Reagent (Ambion). cDNA Reverse Transcription were performed by using High-Capacity cDNA Reverse Transcription Kit (Applied Biosystems). PCR primers were synthesized by IDT (Coralville, IA). Each PCR was carried out in triplicate in a 20 μl volume using SYBR Green Master Mix (Applied Biosystems) for 15 minutes at 95° C. for initial denaturing, followed by 40 cycles of 95° C. for 15 s and 60° C. for 60 s in ViiA 7 Real-Time PCR System (Applied Biosystems). At least two independent experiments were done. Values for each gene were normalized to expression levels of GAPDH mRNA.
2×10^6 cells were incubated in serum-free or EGF free medium containing different concentrations of erlotinib or DMSO. After 48 hours, supernatant and cell lysates were collected. Supernatant medium was concentrated 5-10-fold with Pierce protein concentrator (ThermoFisher). TNF protein concentration in supernatant, cell lysates and tissue extracts was determined by ELISA using a commercial TNF detection kit (ThermoFisher) according to manufacturer's instructions. Additionally, GAS6 protein concentration in supernatant was measured by ELISA kit (LifeSpan BioSciences).

GBM9 intracranial tumors = assay: Orthotopic (intracranial) GBM9 model, survival and bioluminescence imaging; conditions: erlotinib 50 mg/kg oral gavage and/or thalidomide 150 mg/kg i.p., 10 days; repeated with afatinib
Experimental: For the orthotropic model, 1×10^5 GBM9 cells expressing firefly luciferase were injected into the right corpus striatum of the brains of 6-8-week-old nude mice using a stereotactic frame. […] The mice were treated with erlotinib 50 mg/kg by oral gavage and/or intraperitoneal (i.p.) injection of 150 mg/kg thalidomide for 10 consecutive days. Bioluminescence imaging (BLI) was performed to record the growth of tumor every 5 days. Kaplan-Maier survival curves were calculated using GraphPad Prism 7.0 software. Mice were monitored and sacrificed when neurological signs appeared or after 40 days.

TNF [4] = assay: TNF ELISA on GBM9 xenograft tumor extracts; assay type: in vivo, mice
Experimental: To detect the in vivo levels of TNF, 1×10^6 GBM9 cells were injected into the right flanks of nude mice. When the subcutaneous tumor reached a volume of around 200 mm^3, the mice were treated with erlotinib to monitor the upregulation of TNF protein. The animals were dosed consecutively for 1, 2, 7 or 14 days and then sacrificed. The animals without treatment were considered as control (0-day treatment). Tumor tissues were rinsed in PBS and protein was extracted to analyze the TNF levels using ELISA and also used for western blot. To detect the protein expression in mice brain tumor tissues upon drug treatment, the same procedure was performed in orthotopic models. Additionally, with orthotopic models, mice were divided into four groups (control gavage group, erlotinib group, thalidomide group and erlotinib plus thalidomide, n=3). After 48 hours treatment tumors were harvested and subjected to Western blot and immunostaining.

JNK = assay: Western blot, JNK activation (phosphorylation of JNK) in glioma cells; assay type: cell-based, human; conditions: erlotinib; patient derived neurospheres and established GBM cell lines
Experimental: as §1

GBM = conditions: human, in vivo; cited from earlier work
ERK = assay: Western blot, ERK activation (pERK) in glioma cells; conditions: GBM9 neurospheres
Experimental: Western blot analysis was performed according to standard protocols. In all experiments, before the addition of EGF or erlotinib established cells were cultured overnight in serum free DMEM and primary GBM neurospheres were EGF starved overnight. Cells not treated with EGF or erlotinib were also serum or EGF starved.

GAS6 promoter = assay: ChIP assay, c-Jun on the GAS6 promoter; assay type: cell-based, human; conditions: erlotinib 1 μM, 24 h; GBM9 and U87EGFRwt cells
Experimental: GBM9 and U87EGFRwt cells were cultured in 15 cm plate per reaction for assay. ChIP assays were carried out using ChIP chromatin immunoprecipitation kit (Millipore) following manufacturer's instructions. The ChIP-enriched DNA samples were quantified by PCR using Platinum Taq DNA polymerase (Invitrogen). Putative AP-1 binding sites on GAS6 promoter were predicted by Using TFBIND program. The following primer pairs covering AP-1 sites were used: 5′-[…]-3′ (SEQ ID NO:1) and 5′-[…]-3′ (SEQ ID NO:2).

Axl = assay: Western blot, Axl activation (pAxl) in glioma cells; conditions: erlotinib 48 h; patient derived GBM neurospheres and all cell lines examined
Experimental: Western blot analysis was performed according to standard protocols. In all experiments, before the addition of EGF or erlotinib established cells were cultured overnight in serum free DMEM and primary GBM neurospheres were EGF starved overnight. Cells not treated with EGF or erlotinib were also serum or EGF starved. EGFR (06-847, 1 μg/ml) antibody was from Millipore. pEGFR-1068 (2236), pERK (4376) ERK (4695), p34 (9251), JNK (9252), STAT3(9139), pAkt (0915) and pSTAT3 (9131) antibodies were from Cell Signaling Technology (Danvers, MA) were used a 1/1000 dilution; TNFR1 (sc-8436), ERK2 (sc-154). Akt (sc-1619), and β-Actin (sc-47778) were from Santa Cruz Biotechnology (Dallas, TX) were used at a concentration of 1 μg/ml. GAS6 (AF885), pAxl (AF2228) and Axl (AF154) were from R&D Biosystems (Minneapolis, MN) were used at a concentration of 1 μg/ml c-JUN antibody (ab31419) was from Abcam (Cambridge, MA) and was used at 2 μg per chromatin IP reaction.

Question: Which “NF-κB reporter / transcriptional activity” value [1] does the source give for `C#Cc1cccc(Nc2ncnc3cc(OCCOC)c(OCCOC)cc23)c1` [erlotinib] here?
Answer: does not result in an increase in NF-κB reporter activity

Question: What about the GAS6 expression (GAS6) of the same molecule?
Answer: increase in GAS6

Question: What about the “Cell viability, erlotinib alone” value [2] of the same molecule?
Answer: completely resistant

Question: And the Met activation (Met)?
Answer: induces activation of Met in established cell lines, but only in one patient derived neurosphere 987

Question: And the “TNF mRNA in GBM622 cells” value (TNF [3]; GBM622 neurospheres (very low EGFR), erlotinib 100 nM, 24 h)?
Answer: No increase in TNF is detected

Question: And the “TNF mRNA levels” value (TNF [3]; erlotinib 100 nM (GBM9, GBM39) or 1 μM (U87EGFRwt, U87EGFRvIII))?
Answer: significant and rapid increase in TNF mRNA levels

Question: What about the “TNF protein level (ELISA)” value (TNF [3]; supernatants of erlotinib treated cells) of the same molecule?
Answer: increase in TNF was confirmed at a protein level

Question: And the Survival of mice (GBM9 intracranial tumors)?
Answer: neither erlotinib nor thalidomide alone had a significant effect

Question: And the “TNF level in subcutaneous mouse tumors” value (TNF [4]; GBM9 flank tumors, erlotinib 50 mg/kg)?
Answer: increase in TNF can be detected 1 day after administration of erlotinib

Question: And the “Time to upregulation of TNF in GBM xenograft tumors” value (TNF [4]; erlotinib)?
Answer: about 24 hours

Question: And the “JNK activation (phosphorylation of JNK)” value (JNK)?
Answer: activation of INK

Question: And the “Clinical efficacy in GBM patients” value (GBM)?
Answer: also not effective

Question: What about the “ERK activation after addition of erlotinib” value (ERK; erlotinib 1 μM, early time points) of the same molecule?
Answer: decreased after addition of erlotinib

Question: And the “Feedback reactivation of ERK under continued EGFR inhibition” value (ERK; erlotinib 1 μM or afatinib 100 nM)?
Answer: reactivation of ERK is seen at 24-48 h

Question: What about the “Binding of c-Jun to the GAS6 promoter” value (GAS6 promoter) of the same molecule?
Answer: binding of cJun to the GAS6 promoter

Question: And the Axl phosphorylation (Axl)?
Answer: phosphorylation of the RTK Axl
